These are literature values, as cited in patent publication EP4755400A1, “ANTIBODY-DRUG CONJUGATE CONTAINING GLYCOSYLPYRIDINE LINKER” (Novocodex Biopharmaceuticals Co., Ltd., priority 2023, dated 2025).

For this data set, the system named is human carcinoma lines.

Consider `COc1cccc2c1C(=O)c1c(O)c3c(c(O)c1C2=O)C[C@@](O)(C(=O)CO)C[C@@H]3O[C@H]1C[C@H](N)[C@H](O)[C@H](C)O1` [doxorubicin], for which the IC50 is 100 to 200 nM.
